Data published in BindingDB's records for doi:10.1021/acschembio.5b00398 (University of Oxford, 2015).

Key:
Assay in all cases: EMSA
[1] = target: Cyclin-dependent kinase 2 (Homo sapiens, UniProt P24941)
Procedure: (§1) First, 4.5 μL of 2× kinase solution was added to 0.05 μL of compound (maximum concentration 1.8 mM in 90% DMSO and 10% H2O). To allow for possible slow association, plates with type II inhibitors were incubated for 60 min at 30 °C. The assay started after the addition of 4.5 μL of 2× peptide with ATP and was run for 60 min at 30 °C, after which 16 μL of stop solution was added (100 mM HEPES pH 7.5, 5% DMSO, 0.1% coating reagent (Caliper Lifescience) 10 mM EDTA, pH 8.0, 0.015% BRIJ35). All reactions were performed in 50 mM HEPES, pH 7.5, 1 mM DTT, 0.02% Tween 20, 0.02% BSA, 10 mM betaglycerophosphate, 0.01 mM Na3VO4, 0.6% DMSO, and 2 μM peptide.

[2] = target: Cyclin-dependent kinase 2 [A144C] (Homo sapiens, UniProt P24941, A144C)
Procedure: as §1

[3] = target: Cyclin-dependent kinase 2 [A144G] (Homo sapiens, UniProt P24941, A144G)
Procedure: as §1

[4] = target: Cyclin-dependent kinase 2 [C118I] (Homo sapiens, UniProt P24941, C118I)
Procedure: as §1

[5] = target: Cyclin-dependent kinase 2 [C118L,A144C] (Homo sapiens, UniProt P24941, A144C/C118L)
Procedure: as §1

[6] = target: Cyclin-dependent kinase 2 [C118L] (Homo sapiens, UniProt P24941, C118L)
Procedure: as §1

[7] = target: Cyclin-dependent kinase 2 [F80M] (Homo sapiens, UniProt P24941, F80M)
Procedure: as §1

[8] = target: Cyclin-dependent kinase 2 [F80T] (Homo sapiens, UniProt P24941, F80T)
Procedure: as §1

`CC(=O)Nc1cc(Oc2ccc3c(C(=O)Nc4ccc(CN5CCN(C)CC5)c(C(F)(F)F)c4)cccc3c2)ncn1` [K03859 (2)] was tested, and the IC50 [1] was > 10 µM, the IC50 [2] was > 10 µM and the IC50 [3] was > 10 µM. The IC50 [4] was > 10 µM, the IC50 [5] was > 10 µM and the IC50 [6] was > 10 µM. The IC50 [7] was > 10 µM and the IC50 [8] was 7.1 µM.
